The source of these data is PMC10336134, “Effects of dialkoxybenzenes against Varroa destructor and identification of 1-allyloxy-4-propoxybenzene as a promising acaricide candidate” (Scientific Reports, 2023).

The target of data set [1] is T1, Human expressed AChE (hAChE) (Homo sapiens, UniProt P22303).
T1 construct: recombinant, commercial lyophilized powder (Sigma C1682)
Kind of data set: Ellman assay, Michaelis-Menten kinetics with inhibitor. It is filed as biochemical. The following applies: acetylthiocholine; 0.5-3 mM compound; pH 7.6; competitive. In general terms: DTNB colorimetry detects thiols as they appear.

Data set [2] deals with T2, Varroa destructor AChE (VdAChE).
T2 construct: native extract from pre-frozen mites
In words: Ellman assay, […] nm. The following applies: no test compound; sodium phosphate pH 7.6, DTNB, ethanol/Tween 20; mite extract; read-out: KM (× 10^-5 M). In kind it is biochemical.

In data set [3] the test system is T3, Honey bee AChE (AmAChE).
T3 construct: gene AmAChE1; native isolate from nurse bees
In words: Ellman assay. It is filed as biochemical, Apis mellifera. The following applies: no test compound; sodium phosphate pH 7.6, DTNB, ethanol/Tween 20; bee isolate; read-out: KM (× 10^-5 M). From the text: Ellman assay on Honey bee AChE (AmAChE)

Substrate in data set [4]: CC(=O)SCC[N+](C)(C)C
In words: purified protein. In kind it is biochemical, Homo sapiens. The following applies: no test compound, sodium phosphate pH 7.6, DTNB, ethanol/Tween 20.

In the case of `CCN(CC)C(=O)c1cccc(C)c1` [DEET], in data set [1], the “Ellman assay, Michaelis-Menten kinetics with inhibitor” value was “all three forms of the enzyme, hAChE, AmAChE and VdAChE, were competitively inhibited by DEET”.

For the molecule `CC(=O)SCC[N+](C)(C)C` [acetylthiocholine iodide], the figures for the Km in data set [2] and in data set [3] were 14 µM and 22 µM, respectively.

B1: Human expressed AChE (hAChE) (Homo sapiens) (protein)
chain: EGREDAELLVTVRGGRLRGIRLKTPGGPVSAFLGIPFAEPPMGPRRFLPPEPKQPWSGVVDATTFQSVCYQYVDTLYPGFEGTEMWNPNRELSEDCLYLNVWTPYPRPTSPTPVLVWIYGGGFYSGASSLDVYDGRFLVQAERTVLVSMNYRVGAFGFLALPGSREAPGNVGLLDQRLALQWVQENVAAFGGDPTSVTLFGESAGAASVGMHLLSPPSRGLFHRAVLQSGAPNGPWATVGMGEARRRATQLAHLVGCPPGGTGGNDTELVACLRTRPAQVLVNHEWHVLPQESVFRFSFVPVVDGDFLSDTPEALINAGDFHGLQVLVGVVKDEGSYFLVYGAPGFSKDNESLISRAEFLAGVRVGVPQVSDLAAEAVVLHYTDWLHPEDPARLREALSDVVGDHNVVCPVAQLAGRLAAQGARVYAYVFEHRASTLSWPLWMGVPHGYEIEFIFGIPLDPSRNYTAEEKIFAQRLMRYWANFARTGDPNEPRDPKAPQWPPYTAGAQQYVSLDLRPLEVRRGLRAQACAFWNRFLPKLLSATDTLDEAERQWKAEFHRWSSYMVHWKNQFDHYSKQDRCSDL
notes: recombinant, commercial lyophilized powder (Sigma C1682)
For B1, in data set [4], the Michaelis-Menten constant (Km) (commonly the substrate concentration at which the rate is half of its maximum) is “(1.0 ± 0.2) × 10^-4 M” and the Vmax (usually the top rate of the reaction or transport when substrate is in excess) was determined as 51 µM/min.
